The record followed here is patent US20250066368A1, “DNA POLYMERASE THETA INHIBITOR AND USE THEREOF” (SHANGHAI APEIRON THERAPEUTICS COMPANY LIMITED, priority 2021, published 2025).

Bounds are passed on as bounds.

Chain of Polθ polymerase (O75417 1792-2590): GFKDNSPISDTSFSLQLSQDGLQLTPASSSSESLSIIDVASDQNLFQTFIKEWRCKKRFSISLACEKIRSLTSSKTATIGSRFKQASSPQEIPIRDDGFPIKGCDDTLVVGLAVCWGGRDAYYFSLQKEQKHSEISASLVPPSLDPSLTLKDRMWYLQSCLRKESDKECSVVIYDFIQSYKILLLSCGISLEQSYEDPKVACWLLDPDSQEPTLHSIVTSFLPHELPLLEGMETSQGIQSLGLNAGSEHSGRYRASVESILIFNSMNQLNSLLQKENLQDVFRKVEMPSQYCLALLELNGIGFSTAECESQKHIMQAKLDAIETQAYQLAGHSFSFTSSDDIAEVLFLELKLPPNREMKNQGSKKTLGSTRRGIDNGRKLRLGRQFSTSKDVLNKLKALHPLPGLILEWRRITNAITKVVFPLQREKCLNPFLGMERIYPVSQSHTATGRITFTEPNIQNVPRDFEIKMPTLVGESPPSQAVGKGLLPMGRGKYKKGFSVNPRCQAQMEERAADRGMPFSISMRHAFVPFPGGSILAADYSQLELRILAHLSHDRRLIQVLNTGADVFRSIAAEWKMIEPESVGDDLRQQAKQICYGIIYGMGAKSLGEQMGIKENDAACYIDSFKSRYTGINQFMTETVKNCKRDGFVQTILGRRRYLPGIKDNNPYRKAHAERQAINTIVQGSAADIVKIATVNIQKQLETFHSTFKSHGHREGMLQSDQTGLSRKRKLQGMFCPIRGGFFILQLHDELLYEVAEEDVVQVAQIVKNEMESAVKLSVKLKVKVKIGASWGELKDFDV

This experiment addresses Polθ polymerase (Homo sapiens (Human), UniProt O75417). Put plainly: Polθ polymerase activity assay (PicoGreen method). It is filed as biochemical. To be noted: His-TEV-SUMO-tagged Polθ protein (amino acids 1792-2590), PicoGreen fluorescence, in vitro. On the procedure:
The ability of compounds to inhibit Pol 0 polymerase activity was determined by the PicoGreen method in vitro. The His-TEV-SUMO-tagged Polθ protein (amino acids 1792-2590) expressed in E. coli was purified and stored in aliquots at -80° C. […] Test compounds were diluted in 100% DMSO and diluted three-fold into 10 concentration points in a dilution plate (Greiner-781280) using Bravo (Agilent) according to concentration requirements. The compounds diluted in DMSO were then diluted 20-fold in the assay buffer using Bravo. Further, 2 μl of diluted compounds were transferred to the assay plate (Corning-4512) using Bravo. The purified Pol 0 enzyme and primers ((primer strand: […] ID NO: 1):(template strand: […] A mixture containing 10 mM EDTA, 25 mM Tris pH 7.5, and a 1:200 diluted PicoGreen dye (Invitrogen-[…] the reaction. After 30 min of reaction at room temperature in the dark, fluorescence values were read on EnVision 2105 (PerkinElmer) using the Ex480 nm Em520 nm program, and the raw data was analyzed using XLfit to generate IC50 values. The results are shown in the table below.
Take `CN(C(=O)[C@@H]1CNC(=O)N1c1cc(C(F)(F)F)c2c(n1)C(=O)CC2)c1ccc(F)c(Cl)c1F` [Compound 13, (S)—N-(3-chloro-2,4-difluorophenyl)-N-methyl-2-oxo-3-(7-oxo-4-(trifluoromethyl)-6,7-dihydro-5H-cyclopenta[b]pyridin-2-yl)imidazolidine-4-carboxamide]: the half-maximal inhibitory concentration (IC50) was at most 50 nM. For `CN(C(=O)[C@@H]1CNC(=O)N1c1cc(SC(F)(F)F)c2ncsc2n1)c1ccc(F)c(Cl)c1F` [Compound 44, (S)—N-(3-chloro-2,4-difluorophenyl)-N-methyl-2-oxo-3-(7-((trifluoromethyl)thio)thiazolo[5,4-b]pyridin-5-yl)imidazolidine-4-carboxamide] the value was 50 to 500 nM; for `CN(C(=O)[C@@H]1CNC(=O)N1c1cc(C(F)(F)F)c2c(n1)CCC2)c1ccc(F)c(Cl)c1F` [Compound 1, (S)—N-(3-chloro-2,4-difluorophenyl)-N-methyl-2-oxo-3-(4-(trifluoromethyl)-6,7-dihydro-5H-cyclopenta[b]pyridin-2-yl)imidazolidine-4-carboxamide], at most 50 nM; for `CN(C(=O)[C@@H]1CNC(=O)N1c1cc(C(F)(F)F)n2cccc2n1)c1ccc(F)c(Cl)c1F` [Compound 22, (S)—N-(3-chloro-2,4-difluorophenyl)-N-methyl-2-oxo-3-(4-(trifluoromethyl)pyrrolo[1,2-a]pyrimidin-2-yl)imidazolidine-4-carboxamide], at most 50 nM. For `CN(C(=O)[C@@H]1CNC(=O)N1c1cc(C(F)(F)F)c2c(n1)CC[C@]2(C)O)c1ccc(F)c(Cl)c1F` [Compound 8a] the value was 500 to 5000 nM; for `CN(C(=O)[C@@H]1CNC(=O)N1c1cc(C(F)(F)F)c2c(n1)CCC2=O)c1ccc(F)c(Cl)c1F` [Compound 3, (S)—N-(3-chloro-2,4-difluorophenyl)-N-methyl-2-oxo-3-(5-oxo-4-(trifluoromethyl)-6,7-dihydro-5H-cyclopenta[b]pyridin-2-yl)imidazolidine-4-carboxamide], over 5000 nM. For `CN(C(=O)[C@@H]1CNC(=O)N1c1cc(C(F)(F)F)c2ccsc2n1)c1ccc(F)c(Cl)c1F` [Compound 14, (S)—N-(3-chloro-2,4-difluorophenyl)-N-methyl-2-oxo-3-(4-(trifluoromethyl)thieno[2,3-b]pyridin-6-yl)imidazolidine-4-carboxamide] the value was at most 50 nM. In turn, `O=C1OC[C@@H](c2nc(F)cn2-c2ccc(F)c(Cl)c2)N1c1cc(C(F)(F)F)c2ccsc2n1` [Compound 30, (R)-4-(1-(3-chloro-4-fluorophenyl)-4-fluoro-1H-imidazol-2-yl)-3-(4-(trifluoromethyl)thieno[2,3-b]pyridin-6-yl)oxazolidin-2-one] had a concentration for half-maximal inhibition (IC50) of at most 50 nM.

On to `CN(C(=O)[C@@H]1CNC(=O)N1c1nccn2ccnc12)c1ccc(F)c(Cl)c1F` [Compound 41, (S)—N-(3-chloro-2,4-difluorophenyl)-3-(imidazo[1,2-a]pyrazin-8-yl)-N-methyl-2-oxoimidazolidine-4-carboxamide], for which the IC50 was over 5000 nM. For `CSc1cc(N2C(=O)NC[C@H]2C(=O)N(C)c2ccc(F)c(Cl)c2F)nc2scnc12` [Compound 43, (S)—N-(3-chloro-2,4-difluorophenyl)-N-methyl-3-(7-(methylthio)thiazolo[5,4-b]pyridin-5-yl)-2-oxoimidazolidine-4-carboxamide] the value was 50 to 500 nM. For `CN(C(=O)[C@@H]1CNC(=O)N1c1cc(C(F)(F)F)c2c(n1)C(F)(F)CC2)c1ccc(F)c(Cl)c1F` [Compound 12, (S)—N-(3-chloro-2,4-difluorophenyl)-3-(7,7-difluoro-4-(trifluoromethyl)-6,7-dihydro-5H-cyclopenta[b]pyridin-2-yl)-N-methyl-2-oxoimidazolidine-4-carboxamide] the value was at most 50 nM; for `CN(C(=O)[C@@H]1CNC(=O)N1c1cc(C(F)(F)F)c2c(ncn2C)n1)c1ccc(F)c(Cl)c1F` [Compound 10, (S)—N-(3-chloro-2,4-difluorophenyl)-N-methyl-3-(1-methyl-7-(trifluoromethyl)-1H-imidazo[4,5-b]pyridin-5-yl)-2-oxoimidazolidine-4-carboxamide], over 5000 nM. `CN(C(=O)[C@@H]1CNC(=O)N1c1cc(C(F)(F)F)c2ccccc2n1)c1ccc(F)c(Cl)c1F` [Compound 17, (S)—N-(3-chloro-2,4-difluorophenyl)-N-methyl-2-oxo-3-(4-(trifluoromethyl)quinolin-2-yl)imidazolidine-4-carboxamide] yielded a half-inhibitory concentration (IC50) of 50 to 500 nM. As to `CN(C(=O)[C@@H]1CNC(=O)N1c1cc(C(F)(F)F)c2c(n1)CCCC2)c1ccc(F)c(Cl)c1F` [Compound 5, (S)—N-(3-chloro-2,4-difluorophenyl)-N-methyl-2-oxo-3-(4-(trifluoromethyl)-5,6,7,8-tetrahydroquinolin-2-yl)imidazolidine-4-carboxamide], the concentration for half-maximal inhibition (IC50) was in the range of 500 to 5000 nM.

With `CN(C(=O)[C@@H]1CNC(=O)N1c1cc(C(F)(F)F)c2cccn2n1)c1ccc(F)c(Cl)c1F` [Compound 27, (S)—N-(3-chloro-2,4-difluorophenyl)-N-methyl-2-oxo-3-(4-(trifluoromethyl)pyrrolo[1,2-b]pyridazin-2-yl)imidazolidine-4-carboxamide], the half-maximal inhibitory concentration (IC50) was at most 50 nM. As for `CN(C(=O)[C@@H]1CNC(=O)N1c1cc(C2CC2)c2ncsc2n1)c1ccc(F)c(Cl)c1F` [Compound 31, [(4S)-3-(7-cyclopropyl (1,3-thiazolo[4,5-e]pyridin-5-yl))-2-oxoimidazolidin-4-yl]-N-(3-chloro-2,4-difluorophenyl)-N-methylformamide], the figure is at most 50 nM. As for `CN(C(=O)[C@@H]1CNC(=O)N1c1cc(C(F)(F)F)c2c(n1)CC=C2)c1ccc(F)c(Cl)c1F` (single isomer, unassigned) [Compound 9b], the figure is at most 50 nM; as for `CN(C(=O)[C@@H]1CNC(=O)N1c1cc(C(F)(F)F)c2c(n1)CC[C@H]2O)c1ccc(F)c(Cl)c1F` [Compound 6a], 500 to 5000 nM; as for `CN(C(=O)[C@@H]1CNC(=O)N1c1cc(C(F)(F)F)c2c(n1)CCC2(F)F)c1ccc(F)c(Cl)c1F` [Compound 11, (S)—N-(3-chloro-2,4-difluorophenyl)-3-(5,5-difluoro-4-(trifluoromethyl)-6,7-dihydro-5H-cyclopentadienyl[b]pyridin-2-yl)-N-methyl-2-oxoimidazolidine-4-carboxamide], 50 to 500 nM.

Turning to `CN(C(=O)[C@@H]1CNC(=O)N1c1cc(C(F)(F)F)c2cc[se]c2n1)c1ccc(F)c(Cl)c1F` [Compound 33], the half-inhibitory concentration (IC50) was at most 50 nM.

`CN(C(=O)[C@@H]1CNC(=O)N1c1cc(C(F)(F)F)c2ccoc2n1)c1ccc(F)c(Cl)c1F` [Compound 15, (S)—N-(3-chloro-2,4-difluorophenyl)-N-methyl-2-oxo-3-(4-(trifluoromethyl)furo[2,3-b]pyridin-6-yl)imidazolidine-4-carboxamide] showed an IC50 of 50 to 500 nM.

In turn, `CN(C(=O)[C@@H]1CNC(=O)N1c1cc(C(F)(F)F)c2sccc2n1)c1ccc(F)c(Cl)c1F` [Compound 4, (S)—N-(3-chloro-2,4-difluorophenyl)-N-methyl-2-oxo-3-(7-(trifluoromethyl)thieno[3,2-b]pyridin-5-yl)imidazoline-4-carboxamide] had an IC50 of 50 to 500 nM. As for `CN(C(=O)[C@@H]1CNC(=O)N1c1cc(C(F)(F)F)c2c(n1)CC=C2)c1ccc(F)c(Cl)c1F` (single isomer, unassigned) [Compound 9a], the figure is at most 50 nM; as for `CN(C(=O)[C@@H]1CNC(=O)N1c1cc(C(F)(F)F)c2c(n1)OCC2)c1ccc(F)c(Cl)c1F` [Compound 20, (S)—N-(3-chloro-2,4-difluorophenyl)-N-methyl-2-oxo-3-(4-(trifluoromethyl)-2,3-dihydrofuro[2,3-b]pyridin-6-yl)imidazolidine-4-carboxamide], 50 to 500 nM; as for `CN(C(=O)[C@@H]1CNC(=O)N1c1ccc2c(n1)CCC2)c1ccc(F)c(Cl)c1F` [Compound 2, (S)—N-(3-chloro-2,4-difluorophenyl)-3-(6,7-dihydro-5H-cyclopenta[b]pyridin-2-yl)-N-methyl-2-oxoimidazolidine-4-carboxamide], 500 to 5000 nM. Molecule `CN(C(=O)[C@@H]1CNC(=O)N1c1cc(C(F)(F)F)c2ccn(C)c2n1)c1ccc(F)c(Cl)c1F` [Compound 18, (S)—N-(3-chloro-2,4-difluorophenyl)-N-methyl-3-(1-methyl-4-(trifluoromethyl)-1H-pyrrolo[2,3-b]pyridin-6-yl)-2-oxoimidazolidine-4-carboxamide] yielded a half-inhibitory concentration (IC50) of 50 to 500 nM.

The term IC50 denotes the concentration at which inhibition is half-maximal. The low end stands for higher potency, the high end for lower potency.
